Laboratory results: US11213506B2, “Combination therapy for the treatment or prevention of tumours” (QBIOTICS PTY LTD, priority 2017, dated 2022)

Key:
Assay type in all cases: cell-based, human
[1] = tested on: MM649 cells; test: IncuCyte cytotoxicity assay (propidium iodide); conditions: 500 μM
Method: (§1) A431 (human epidermoid carcinoma), MM649 (human melanoma), B16-OVA (B16-F10 mouse melanoma cell line stably transfected with chicken ovalbumin), MM415 (human melanoma) and FaDu (human hypopharyngeal carcinoma) cells were cultured in RPMI-1640, 10% FCS (complete medium) at 37° C., 5% CO2 in a humidified incubator. All cell lines used in this study were confirmed as mycoplasma negative using MycoAlert (Lonza). STR profiling was also performed to confirm the identity of the human cell lines used.
(§2) Four cancer cell lines (A431, MM649 (human melanoma), FaDu (HNSCC) and MM415 (human melanoma) were assessed for their response to epoxytigliane treatment. Cells were plated at a density of 10,000 cells per well (100 μl of complete media) into clear bottom black 96-well plates (Corning, #3603). Following 24 h incubation, the media within each well was aspirated and replaced with 50 μl of fresh media containing 1 μg/ml propidium iodide (PI). Stock solutions (20 mg/ml in ethanol) of four epoxytiglianes (Compounds 1, 2, 3 and 4) were diluted to 2× final assay concentration (1 mM) in identical media and inserted into a U-bottom 96 well plate in preparation for transfer. 50 μl of dilution was added to the required wells and the resultant plates inserted into an Essen Biosciences IncuCyte in preparation for imaging. Images were acquired at various time points (30 min, 1 h and at hourly intervals) for a total of 24 h.

[2] = tested on: MM415 cells; test: IncuCyte cytotoxicity assay (propidium iodide); conditions: 500 μM
Method: as §1, §2

[3] = tested on: FaDu cells; test: IncuCyte cytotoxicity assay (propidium iodide); conditions: 500 μM
Method: as §1, §2

[4] = tested on: A431 cells; test: IncuCyte cytotoxicity assay (propidium iodide); conditions: 500 μM
Method: as §1, §2

[5] = tested on: MM649 cells; test: Intracellular ATP assay (CellTiter-Glo 2.0)
Method: (§3) CellTiter-Glo® 2.0 assay kits (Promega Corporation), a luminescence based assay quantitating the amount of ATP present in cells, were used to determine intracellular ATP levels in cultures of A431 and MM649 exposed to two concentrations (300 μM and 500 μM) of Compound 1. Again, cells were plated at a density of 10,000 cells per well into a clear bottomed black 96-well plates (in 100 μl of complete medium) and incubated at 37° C., 5% CO2 overnight. At the time of assay, media was aspirated from each well and 50 μl of fresh medium was inserted. Stock solutions of Compound 1 were diluted to 2× final assay concentrations (1 mM and 600 μM) and 50 μl of these dilutions added to the required wells. Ethanol only control solutions were also compiled and administered. At the indicated time points, media was gently removed making sure not to disturb the cells and 100 μl of CellTiter-Glo® 2.0 Reagent added. The resultant plate was mixed on an orbital shaker for 2 mins to induce cell lysis after which it was incubated in the dark for 10 mins. Following this, the luminescent signal in each well was determined. Luminescent signals from compound treated wells were normalised to Vehicle treated wells and expressed as % intracellular ATP vs. time.

[6] = tested on: A431 cells; test: Intracellular ATP assay (CellTiter-Glo 2.0)
Method: as §3

[7] = after 120 minutes, majority of cells
[8] = differing extents and kinetics of onset

## C/C=C(\C)C(=O)O[C@@H]1[C@@H](C)[C@@]2(O)[C@H]([C@@H]3C(C)(C)[C@]13OC(=O)[C@@H](C)CC)[C@@H]1O[C@]1(CO)[C@@H](O)[C@]1(O)C(=O)C(C)=C[C@H]12 [Compound 1, 12-tigloyl-13-(2-methylbutanoyl)-6,7-epoxy-4,5,9,12,13,20-hexahydroxy-1-tiglien-3-one]
[1]; [7]
  propidium iodide staining (loss of plasma membrane integrity): strong red staining
[1]; [8]
  cell morphology (cytoplasmic swelling, blistering): significant cytoplasmic swelling and ‘blistering’
[2]; [7]
  propidium iodide staining (loss of plasma membrane integrity): strong red staining
[2]; [8]
  cell morphology (cytoplasmic swelling, blistering): significant cytoplasmic swelling and ‘blistering’
[3]; [7]
  propidium iodide staining (loss of plasma membrane integrity): strong red staining
[3]; [8]
  cell morphology (cytoplasmic swelling, blistering): significant cytoplasmic swelling and ‘blistering’
[4]; [7]
  propidium iodide staining (loss of plasma membrane integrity): strong red staining
[4]; [8]
  cell morphology (cytoplasmic swelling, blistering): significant cytoplasmic swelling and ‘blistering’
[5]; 300 μM, after 120 minutes
  intracellular ATP: approximately 50 % of the pre-treatment level
[5]; 500 μM, after 60 minutes
  intracellular ATP levels: almost undetectable
[6]; 300 μM, after 120 minutes
  intracellular ATP: approximately 50 % of the pre-treatment level
[6]; 500 μM, after 60 minutes
  intracellular ATP levels: almost undetectable
